Measured values taken from article PMC10026625 (RSC Advances, 2023).

Test system: SARS-CoV-2 ancestral Wuhan strain (OMC-510) / VeroE6/TMPRSS2 cells
Details: plaque reduction assay

CC[C@H](C)[C@H](NC(C)=O)C(=O)N[C@@H](CO)C(=O)NCC(=O)N[C@H](C(=O)N[C@@H](CC(N)=O)C(=O)N[C@@H](C)C(=O)N[C@@H](CO)C(=O)N[C@H](C(=O)N[C@H](C(=O)N[C@@H](CC(N)=O)C(=O)N[C@H](C(=O)N[C@@H](CCC(N)=O)C(=O)N[C@@H](CCC(=O)O)C(=O)N[C@@H](CCC(=O)O)C(=O)N[C@H](C(=O)N[C@@H](CCCCN)C(=O)N[C@@H](CCCNC(=N)N)C(=O)N[C@@H](CC(C)C)C(=O)N[C@@H](CC(N)=O)C(=O)N[C@@H](CCC(=O)O)C(=O)N[C@H](C(=O)N[C@@H](C)C(=O)N[C@@H](CCCCN)C(=O)N[C@@H](CCCCN)C(=O)N[C@@H](CC(C)C)C(=O)N[C@@H](CC(N)=O)C(=O)N[C@@H](CCC(=O)O)C(=O)N[C@@H](CO)C(=O)N[C@@H](CC(C)C)C(=O)N[C@H](C(=O)N[C@@H](CC(=O)O)C(=O)N[C@@H](CC(C)C)C(=O)N[C@@H](CCC(N)=O)C(=O)N[C@@H](CCC(=O)O)C(N)=O)[C@@H](C)CC)C(C)C)[C@@H](C)CC)[C@@H](C)CC)C(C)C)C(C)C)[C@@H](C)CC [Peptide 3a]
times higher antiviral activity than peptide 1a: ~4 times
times higher antiviral activity than peptide 2a: approximately 10 times
